Patent US8946211B2, “Fused aminodihydrothiazine derivatives” (Eisai R&D Management Co., Ltd., priority 2008, dated 2015)
Read-outs that look alike come from different tables or passages of the source.

System: Aβ42 production
Test: Quantification of Aβ peptide in culture of neurons from rat fetus brain (Aβ ELISA)
Type: cell-based
Conditions: rat primary cortical neuronal culture (embryonic day 18 Wistar rats), medium collected three days after addition of the compound, Aβx-42 ELISA, read-out: Aβ42 production reducing effect IC50
Protocol: Quantification of Aβ Peptide in Culture of Neurons from Rat Fetus Brain
(1) Rat Primary Neuronal Culture
Primary neuronal cultures were prepared from the cerebral cortex of embryonic day 18 Wistar rats (Charles River Japan, Yokohama, Japan). Specifically, the embryos were aseptically removed from pregnant rats under ether anesthesia. The brain was isolated from the embryo and immersed in an ice-cold L-15 medium (such as Invitrogen Corp. Cat #11415-064, Carlsbad, Calif., USA, or SIGMA L1518). The cerebral cortex was collected from the isolated brain under a stereoscopic microscope. The cerebral cortex fragments collected were enzymatically treated in an enzyme solution containing 0.25% trypsin (Invitrogen Corp. Cat #15050-065, Carlsbad, Calif., USA) and 0.01% DNase (Sigma D5025, St. Louis, Mo., USA) at 37° C. for 30 minutes to disperse the cells. Here, the enzymatic reaction was stopped by adding inactivated horse serum to the solution. The enzymatically treated solution was centrifuged at 1,500 rpm for five minutes to remove the supernatant. 5 to 10 mL of a medium was added to the resulting cell mass. Neurobasal medium (Invitrogen Corp. Cat #21103-049, Carlsbad, Calif., USA) supplemented with 2% B27 supplement (Invitrogen Corp. Cat #17504-044, Carlsbad, Calif., USA), 25 μM 2-mercaptoethanol (2-ME, WAKO Cat #139-06861, Osaka, Japan), 0.5 mM L-glutamine (Invitrogen Corp. Cat #25030-081, Carlsbad, Calif., USA), and Antibiotics-Antimycotics (Invitrogen Corp. Cat #15240-062, Carlsbad, Calif., USA) was used as the medium (Neurobasal/B27/2-ME). However, the above Neurobasal medium not supplemented with 2-ME (Neurobasal/B27) was used for the assay. The cells were redispersed by mild pipetting of the cell mass to which the medium was added. The cell dispersion was filtered through a 40-μm nylon mesh (Cell Strainer, Cat #35-2340, Becton Dickinson Labware, Franklin Lakes, N.J., USA) to remove the remaining cell mass, and thus a neuronal cell suspension was obtained. The neuronal cell suspension was diluted with the medium and then plated in a volume of 100 μL/well at an initial cell density of 5×10^5 cells/cm^2 in a 96-well polystyrene culture plate pre-coated with poly-L or D-lysine (Falcon Cat #35-3075, Becton Dickinson Labware, Franklin Lakes, N.J., USA coated with poly-L-lysine using the method shown below, or BIOCOAT™ cell environments Poly-D-lysine cell ware 96-well plate, Cat #35-6461, Becton Dickinson Labware, Franklin Lakes, N.J., USA). Poly-L-lysine coating was carried out as follows. 100 μg/mL of a poly-L-lysine (SIGMA P2636, St. Louis, Mo., USA) solution was aseptically prepared with a 0.15 M borate buffer (pH 8.5). […]

Row | SMILES | IC50 [nM] | IC50 (Neuron, 72 h) [nM]
1 | NC1=N[C@@]2(c3cc(NC(=O)c4ncccc4Br)ccc3F)CCCCC[C@H]2CS1 [Example 253] | 171 | 
2 | NC1=N[C@@]2(c3cc(NC(=O)c4ccc(Cl)cn4)ccc3F)CCCCC[C@H]2CS1 (single isomer, unassigned) [Example 248, N-[3-((4aR*,9aS*)-2-amino-4,4a,5,6,7,8,9,9a-octahydrocyclohepta[d][1,3]thiazin-9a-yl)-4-fluorophenyl]-5-chloropyridine-2-carboxamide] |  | 16
3 | NC1=N[C@@]2(c3cc(NC(=O)c4ncccc4C(F)(F)F)ccc3F)CCCCC[C@H]2CS1 [Example 252] | 187 | 
4 | NC1=N[C@@]2(c3cc(NC(=O)c4ncccc4F)ccc3F)CCCCC[C@H]2CS1 [Example 251] | 120 | 
